Experimental data taken from the supplement of paper PMC10627819.

Assays:
Test in all cases: Bliss interaction score (quartile over a dose matrix) (fitness difference); higher = more antagonism (negative = synergy)
S. aureus DSM 20231 = tested on: S. aureus DSM 20231
How it was run: (§1)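 Growth in each well was taken as OD595 at entry into stationary phase. Dividing by the plate's robust no-drug mean and capping at 1 gave fitness, and single-drug fitness was inferred from the combination data. The Bliss score, observed minus product-expected fitness, is summarised by quartiles over technical, biological and donor/recipient replicates.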

S. aureus Newman = tested on: S. aureus Newman
How it was run: as §1

S. pneumoniae D39V = tested on: S. pneumoniae D39V
How it was run: as §1

B. subtilis 168 = tested on: B. subtilis 168
How it was run: as §1
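Also: first quartile when negative (synergy) and third quartile when positive (antagonism).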

Compound	Bliss interaction score (S. aureus DSM 20231)	Bliss interaction score (S. aureus Newman)	Bliss interaction score (S. pneumoniae D39V)	Bliss interaction score (B. subtilis 168)
CC(=O)O[C@H]1C[C@@]2(C)[C@@H](C[C@@H](O)[C@H]3[C@@]4(C)CC[C@@H](O)[C@@H](C)[C@@H]4CC[C@@]32C)/C1=C(\CCC=C(C)C)C(=O)O [Fusidic acid] + CN[C@@H]1[C@H](O)[C@H](NC)[C@H]2O[C@@]3(O)C(=O)C[C@@H](C)O[C@H]3O[C@@H]2[C@H]1O [Spectinomycin]	0.027	-0.0448	-0.0789	0.0642
CC(=O)O[C@H]1C[C@@]2(C)[C@@H](C[C@@H](O)[C@H]3[C@@]4(C)CC[C@@H](O)[C@@H](C)[C@@H]4CC[C@@]32C)/C1=C(\CCC=C(C)C)C(=O)O [Fusidic acid] + CN[C@@H]1[C@H](O[C@H]2[C@H](O[C@H]3[C@H](O)[C@@H](O)[C@H](N=C(N)N)[C@@H](O)[C@@H]3N=C(N)N)O[C@@H](C)[C@]2(O)C=O)O[C@@H](CO)[C@H](O)[C@H]1O [Streptomycin]	0.034	-0.0834	-0.0901	0.0692
CC(=O)O[C@H]1C[C@@]2(C)[C@@H](C[C@@H](O)[C@H]3[C@@]4(C)CC[C@@H](O)[C@@H](C)[C@@H]4CC[C@@]32C)/C1=C(\CCC=C(C)C)C(=O)O [Fusidic acid] + CN[C@H](CC(C)C)C(=O)N[C@H]1C(=O)N[C@@H](CC(N)=O)C(=O)N[C@H]2C(=O)N[C@H]3C(=O)N[C@H](C(=O)N[C@H](C(=O)O)c4cc(O)cc(O)c4-c4cc3ccc4O)[C@H](O)c3ccc(c(Cl)c3)Oc3cc2cc(c3O[C@@H]2O[C@H](CO)[C@@H](O)[C@H](O)[C@H]2O[C@H]2C[C@](C)(N)[C@H](O)[C@H](C)O2)Oc2ccc(cc2Cl)[C@H]1O [Vancomycin]	0.0205	-0.0305	0.0729	-0.0397
CC(=O)O[C@H]1C[C@@]2(C)[C@@H](C[C@@H](O)[C@H]3[C@@]4(C)CC[C@@H](O)[C@@H](C)[C@@H]4CC[C@@]32C)/C1=C(\CCC=C(C)C)C(=O)O [Fusidic acid] + CN[C@H](CC(C)C)C(=O)N[C@H]1C(=O)N[C@@H](CC(N)=O)C(=O)N[C@H]2C(=O)N[C@H]3C(=O)N[C@H](C(=O)N[C@H](C(=O)O)c4cc(O)cc(O)c4-c4cc3ccc4O)[C@H](O[C@H]3C[C@](C)(N)[C@@H](O)[C@H](C)O3)c3ccc(c(Cl)c3)Oc3cc2cc(c3O[C@@H]2O[C@H](CO)[C@@H](O)[C@H](O)[C@H]2O[C@H]2C[C@](C)(NCc3ccc(-c4ccc(Cl)cc4)cc3)[C@@H](O)[C@H](C)O2)Oc2ccc(cc2Cl)[C@H]1O [Oritavancin]	0.0159	0.0249	0.0765	0.0477
CC(=O)O[C@H]1C[C@@]2(C)[C@@H](C[C@@H](O)[C@H]3[C@@]4(C)CC[C@@H](O)[C@@H](C)[C@@H]4CC[C@@]32C)/C1=C(\CCC=C(C)C)C(=O)O [Fusidic acid] + CO[C@@H]1[C@@H](OC(N)=O)[C@@H](O)[C@H](Oc2ccc3c(O)c(NC(=O)c4ccc(O)c(CC=C(C)C)c4)c(=O)oc3c2C)OC1(C)C [Novobiocin]	0.0249	0.0521	-0.153	0.0723
CC(=O)O[C@H]1C[C@@]2(C)[C@@H](C[C@@H](O)[C@H]3[C@@]4(C)CC[C@@H](O)[C@@H](C)[C@@H]4CC[C@@]32C)/C1=C(\CCC=C(C)C)C(=O)O [Fusidic acid] + CO[C@@]12[C@H](COC(N)=O)C3=C(C(=O)C(C)=C(N)C3=O)N1C[C@@H]1N[C@@H]12 [MitomycinC]	0.0263	0.0159	-0.149	0.0298
CC(=O)O[C@H]1C[C@@]2(C)[C@@H](C[C@@H](O)[C@H]3[C@@]4(C)CC[C@@H](O)[C@@H](C)[C@@H]4CC[C@@]32C)/C1=C(\CCC=C(C)C)C(=O)O [Fusidic acid] + CO[C@H]1/C=C/O[C@@]2(C)Oc3c(C)c(O)c4c(O)c(c(/C=N/N5CCN(C)CC5)c(O)c4c3C2=O)NC(=O)/C(C)=C\C=C\[C@H](C)[C@H](O)[C@@H](C)[C@@H](O)[C@@H](C)[C@H](OC(C)=O)[C@@H]1C [Rifampicin]	0.0497	0.0314	0.0781	0.0723
CC(=O)O[C@H]1C[C@@]2(C)[C@@H](C[C@@H](O)[C@H]3[C@@]4(C)CC[C@@H](O)[C@@H](C)[C@@H]4CC[C@@]32C)/C1=C(\CCC=C(C)C)C(=O)O [Fusidic acid] + COc1c(N2C[C@@H]3CCCN[C@@H]3C2)c(F)cc2c(=O)c(C(=O)O)cn(C3CC3)c12 [Moxifloxacin]	0.0361	0.0453	0.048	0.0398
CC(=O)O[C@H]1C[C@@]2(C)[C@@H](C[C@@H](O)[C@H]3[C@@]4(C)CC[C@@H](O)[C@@H](C)[C@@H]4CC[C@@]32C)/C1=C(\CCC=C(C)C)C(=O)O [Fusidic acid] + COc1cc(Cc2cnc(N)nc2N)cc(OC)c1OC [Trimethoprim]	0.0265	0.0427	-0.0871	0.112
CC(=O)O[C@H]1C[C@@]2(C)[C@@H](C[C@@H](O)[C@H]3[C@@]4(C)CC[C@@H](O)[C@@H](C)[C@@H]4CC[C@@]32C)/C1=C(\CCC=C(C)C)C(=O)O [Fusidic acid] + COc1ccc(C[C@H](N)C(=O)N[C@H]2[C@@H](O)[C@H](n3cnc4c(N(C)C)ncnc43)O[C@@H]2CO)cc1 [Puromycin]	0.0336	-0.0454	-0.213	-0.045
CC(=O)O[C@H]1C[C@@]2(C)[C@@H](C[C@@H](O)[C@H]3[C@@]4(C)CC[C@@H](O)[C@@H](C)[C@@H]4CC[C@@]32C)/C1=C(\CCC=C(C)C)C(=O)O [Fusidic acid] + C[C@@H](O)[C@H]1C(=O)N2C(C(=O)O)=C(SCCNC=N)C[C@H]12 [Imipenem]	0.0208	0.0214	0.0477	0.138
CC(=O)O[C@H]1C[C@@]2(C)[C@@H](C[C@@H](O)[C@H]3[C@@]4(C)CC[C@@H](O)[C@@H](C)[C@@H]4CC[C@@]32C)/C1=C(\CCC=C(C)C)C(=O)O [Fusidic acid] + C[C@H]1COc2c(N3CCN(C)CC3)c(F)cc3c(=O)c(C(=O)O)cn1c23 [Levofloxacin]	0.0375	0.0554	0.119	0.034
